PubChem BioAssay AID330 (DTP/NCI, 2004)
Several values for one entry are separate records, joined by “and”; a condition that tells them apart may be missing. Equal entries are not always repeated. Inconclusive results and toxic doses are left out.

Test system: P388 leukemia ip, CD2F1 mice, survival T/C
Assay: NCI In Vivo Anticancer Drug Screen. Data for tumor model P388 Leukemia (intraperitoneal) in CD2F1 (CDF1) mice
Settings: endpoint: median survival time, higher = longer survival
Summary of the method: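 Mice carrying the transplanted tumor received test compound or vehicle. Survival was recorded in each group, and the value is the treated-group measurement divided by that of the vehicle-treated control group.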

[1] = dose: 50.0 mg/kg/injection, schedule: Q01DX005 (ip), vehicle: Klucel (hydroxypropylcellulose) (HPC)
[2] = dose: 100.0 mg/kg/injection, schedule: Q01DX005 (ip), vehicle: Klucel (hydroxypropylcellulose) (HPC)
[3] = dose: 200.0 mg/kg/injection, schedule: Q01DX005 (ip), vehicle: Klucel (hydroxypropylcellulose) (HPC)
[4] = dose: 60.0 mg/kg/injection, schedule: Q01DX005 (ip), vehicle: saline with Tween-80
[5] = dose: 120.0 mg/kg/injection, schedule: Q01DX005 (ip), vehicle: saline with Tween-80
[6] = dose: 240.0 mg/kg/injection, schedule: Q01DX005 (ip), vehicle: saline with Tween-80
[7] = dose: 50.0 mg/kg/injection, schedule: Q01DX005 (ip), vehicle: saline with Tween-80
[8] = dose: 100.0 mg/kg/injection, schedule: Q01DX005 (ip), vehicle: saline with Tween-80
[9] = dose: 200.0 mg/kg/injection, schedule: Q01DX005 (ip), vehicle: saline with Tween-80
[10] = dose: 50.0 mg/kg/injection, schedule: Q01DX009 (ip), vehicle: Klucel (hydroxypropylcellulose) (HPC)
[11] = dose: 100.0 mg/kg/injection, schedule: Q01DX009 (ip), vehicle: Klucel (hydroxypropylcellulose) (HPC)
[12] = dose: 200.0 mg/kg/injection, schedule: Q01DX009 (ip), vehicle: Klucel (hydroxypropylcellulose) (HPC)
[13] = dose: 200.0 mg/kg/injection, schedule: Q01DX009 (ip), vehicle: saline with Tween-80
[14] = dose: 50.0 mg/kg/injection, schedule: Q01DX009 (ip), vehicle: saline
[15] = dose: 100.0 mg/kg/injection, schedule: Q01DX009 (ip), vehicle: saline
[16] = dose: 200.0 mg/kg/injection, schedule: Q01DX009 (ip), vehicle: saline
[17] = dose: 50.0 mg/kg/injection, schedule: Q01DX009 (ip), vehicle: saline with Tween-80
[18] = dose: 100.0 mg/kg/injection, schedule: Q01DX009 (ip), vehicle: saline with Tween-80

With `CN(CC(=O)O)N=Nc1ccc(C(N)=O)cc1` the T/C [1] was 100 % of control, the T/C [2] was 96 % of control and the T/C [3] was 100 % of control.
With `O=C1Oc2ccccc2C(=O)C1=S1CCCC1` the T/C [1] was 98 % of control, the T/C [2] was 91 % of control and the T/C [3] was 94 % of control.
For `COc1cccc(C2c3cc4c(cc3OC(C)(N3CCCC3)C2C)OCO4)c1O` (configuration not stated), the T/C [4] was 99 % of control, the T/C [5] was 102 % of control and the T/C [6] was 89 % of control.
In the case of `Cc1ccc(N)c(C(=O)Nc2ccc(Br)cc2)c1`, the T/C [7] is reported as 101 % of control, the T/C [8] is reported as 101 % of control and the T/C [9] is reported as 95 % of control.
In the case of `O=C(O)/C(Cl)=C(\Cl)C(=O)Nc1ccccc1C(F)(F)F`, the T/C [7] is reported as 97 % of control and the T/C [8] is reported as 103 % of control.
With `CCC(C)C(=O)C(Br)C(Br)c1ccccc1` (configuration not stated) the T/C [10] was 101 % of control, the T/C [11] was 100 % of control and the T/C [12] was 101 % of control.
For `Cc1cc(N=Nc2ccc(O)cc2C(=O)O)c([N+](=O)[O-])cc1C`, the T/C [10] was 101 % of control, the T/C [11] was 111 % of control and the T/C [12] was 104 % of control.
`C/C(=N\N)c1cnc(NN)nc1C` was tested, and the T/C (dose: 7.5 mg/kg/injection, schedule: Q01DX005 (ip), vehicle: saline) was 106 % of control and the T/C (dose: 15.0 mg/kg/injection, schedule: Q01DX005 (ip), vehicle: saline) was 103 % of control.
For `CC(=O)NS(=O)(=O)c1ccc(N)cc1`, the T/C (dose: 100.0 mg/kg/injection, schedule: Q01DX009 (ip), vehicle: saline sonified) was 109 % of control, the T/C (dose: 132.0 mg/kg/injection, schedule: Q01DX009 (ip), vehicle: saline with Tween-80) was 104 % of control and the T/C [13] was 104 % of control. The T/C (dose: 300.0 mg/kg/injection, schedule: Q01DX009 (ip), vehicle: saline with Tween-80) was 113 % of control and the T/C (dose: 400.0 mg/kg/injection, schedule: Q01DX009 (ip), vehicle: saline sonified) was 104 % of control.
With `C/C=C1\CN2CCc3c([nH]c4ccccc34)C2CC1C1=CN2c3ccccc3C34CCN5CC6=CCOC1C(C6CC53)C24` (configuration not stated) the T/C (dose: 2.38 mg/kg/injection, schedule: Q01DX005 (ip), vehicle: Klucel (hydroxypropylcellulose) (HPC)) was 95 % of control, the T/C (dose: 4.75 mg/kg/injection, schedule: Q01DX005 (ip), vehicle: Klucel (hydroxypropylcellulose) (HPC)) was 97 % of control and the T/C (dose: 9.5 mg/kg/injection, schedule: Q01DX005 (ip), vehicle: Klucel (hydroxypropylcellulose) (HPC)) was 88 % of control.
With `CC(CSc1ccccc1)C(Sc1ccccc1)Sc1ccccc1` (configuration not stated) the T/C [14] was 102 % of control, the T/C [15] was 98 % of control and the T/C [16] was 106 % of control.
In the case of `CCOC1(C)OC2OC(COC(c3ccccc3)(c3ccccc3)c3ccccc3)C(OC(=O)c3ccccc3)C(OC(=O)c3ccccc3)C2O1` (configuration not stated), the T/C (dose: 12.5 mg/kg/injection, schedule: Q01DX009 (ip), vehicle: distilled water + Tween-80) is reported as 98 % of control, the T/C (dose: 25.0 mg/kg/injection, schedule: Q01DX009 (ip), vehicle: distilled water + Tween-80) is reported as 90 % of control and the T/C (dose: 50.0 mg/kg/injection, schedule: Q01DX009 (ip), vehicle: distilled water + Tween-80) is reported as 99 % of control.
With `O=C(C(=O)c1ccccn1)c1ccccn1` the T/C (dose: 50.0 mg/kg/injection, schedule: Q04DX003 (ip), vehicle: saline with Tween-80) was 100 % of control, the T/C (dose: 100.0 mg/kg/injection, schedule: Q04DX003 (ip), vehicle: saline with Tween-80) was 105 % of control and the T/C (dose: 200.0 mg/kg/injection, schedule: Q04DX003 (ip), vehicle: saline with Tween-80) was 109 % of control. For the same compound, the T/C (dose: 400.0 mg/kg/injection, schedule: Q04DX003 (ip), vehicle: saline with Tween-80) was 100 % of control.
For `CC1CN(C(=O)OCC23COC4(C)CCC(C)(OC2)N34)CC(C)O1` (configuration not stated), the T/C (dose: 50.0 mg/kg/injection, schedule: Q01DX005 (ip), vehicle: saline) was 100 % of control, the T/C (dose: 100.0 mg/kg/injection, schedule: Q01DX005 (ip), vehicle: saline) was 100 % of control and the T/C (dose: 200.0 mg/kg/injection, schedule: Q01DX005 (ip), vehicle: saline) was 100 % of control.
`CC(C)[C@]12O[C@H]1[C@@H]1O[C@]13[C@]1(O[C@H]1C[C@H]1C4=C(C(=O)OC4)[C@@H](O)C[C@@]13C)[C@@H]2O` was tested, and the T/C (dose: 0.03 mg/kg/injection, schedule: Q01DX009 (ip), vehicle: saline + alcohol) was 100 % of control and 101 % of control and 119 % of control, the T/C (dose: 0.05 mg/kg/injection, schedule: Q01DX009 (ip), vehicle: saline + alcohol) was 117 % of control and the T/C (dose: 0.06 mg/kg/injection, schedule: Q01DX005 (ip), vehicle: saline + alcohol) was 110 % of control. The T/C (dose: 0.06 mg/kg/injection, schedule: Q01DX005 (iv), vehicle: saline + alcohol) was 107 % of control, the T/C (dose: 0.06 mg/kg/injection, schedule: Q01DX009 (ip), vehicle: saline + alcohol) was 117 % of control and the T/C (dose: 0.1 mg/kg/injection, schedule: Q01DX009 (ip), vehicle: saline + alcohol) was 124 % of control. For the same compound, the T/C (dose: 0.13 mg/kg/injection, schedule: Q01DX005 (ip), vehicle: saline + alcohol) was 122 % of control, the T/C (dose: 0.13 mg/kg/injection, schedule: Q01DX005 (iv), vehicle: saline + alcohol) was 108 % of control and the T/C (dose: 0.25 mg/kg/injection, schedule: Q01DX005 (iv), vehicle: saline + alcohol) was 108 % of control. The T/C (dose: 0.25 mg/kg/injection, schedule: Q01DX009 (ip), vehicle: saline + alcohol) was 157 % of control and 158 % of control and the T/C (dose: 0.5 mg/kg/injection, schedule: Q01DX005 (iv), vehicle: saline + alcohol) was 116 % of control.
In the case of `CCOC(=O)CC1=CS/C(=C(/C#N)C(=O)OCC)S1`, the T/C [7] is reported as 93 % of control, the T/C [8] is reported as 98 % of control and the T/C [9] is reported as 94 % of control.
For `CC1(C)CC(=O)c2c(oc3cc4c5c(oc4cc23)CC(C)(C)CC5=O)C1`, the T/C (dose: 12.5 mg/kg/injection, schedule: Q01DX005 (ip), vehicle: saline with Tween-80) was 90 % of control, the T/C (dose: 25.0 mg/kg/injection, schedule: Q01DX005 (ip), vehicle: saline with Tween-80) was 91 % of control and the T/C [8] was 87 % of control. The T/C [9] was 92 % of control.
With `Cc1nc(C)n2ncnc2c1C` the T/C (dose: 100.0 mg/kg/injection, schedule: Q04DX003 (ip), vehicle: saline) was 93 % of control, the T/C (dose: 200.0 mg/kg/injection, schedule: Q04DX003 (ip), vehicle: saline) was 102 % of control and the T/C (dose: 400.0 mg/kg/injection, schedule: Q04DX003 (ip), vehicle: saline) was 95 % of control.
In the case of `Nc1ccc2nc3ccccc3c(NCCCCCCCCNc3c4ccccc4nc4ccc(N)cc34)c2c1`, the T/C (dose: 2.5 mg/kg/injection, schedule: Q01DX009 (ip), vehicle: water) is reported as 160 % of control and the T/C (dose: 5.0 mg/kg/injection, schedule: Q01DX009 (ip), vehicle: water) is reported as 160 % of control.
In the case of `CCCCC(NC(C)=O)C(=O)O` (configuration not stated), the T/C [17] is reported as 99 % of control and 95 % of control, the T/C [18] is reported as 98 % of control and the T/C [13] is reported as 100 % of control and 96 % of control. For the same compound, the T/C (dose: 400.0 mg/kg/injection, schedule: Q01DX009 (ip), vehicle: saline with Tween-80) was 100 % of control.
With `CC(C)OSc1ccccc1` the T/C (dose: 12.5 mg/kg/injection, schedule: Q01DX001 (ip), vehicle: Klucel (hydroxypropylcellulose) (HPC)) was 113 % of control, the T/C (dose: 25.0 mg/kg/injection, schedule: Q01DX001 (ip), vehicle: Klucel (hydroxypropylcellulose) (HPC)) was 113 % of control and the T/C (dose: 50.0 mg/kg/injection, schedule: Q01DX001 (ip), vehicle: Klucel (hydroxypropylcellulose) (HPC)) was 102 % of control. For the same compound, the T/C (dose: 100.0 mg/kg/injection, schedule: Q01DX001 (ip), vehicle: Klucel (hydroxypropylcellulose) (HPC)) was 103 % of control and 107 % of control and 97 % of control.
For `CC(C)(CO)[C@@H](O)C(=O)NCCC(=O)O`, the T/C [14] was 108 % of control, the T/C [15] was 113 % of control and the T/C [16] was 106 % of control.
For `CC(C)N(Cc1ccccc1)CC(O)c1ccc(Cl)cc1` (configuration not stated), the T/C (dose: 12.5 mg/kg/injection, schedule: Q01DX009 (ip), vehicle: saline with Tween-80) was 104 % of control, the T/C (dose: 25.0 mg/kg/injection, schedule: Q01DX009 (ip), vehicle: saline with Tween-80) was 108 % of control and the T/C [17] was 100 % of control and 108 % of control. For the same compound, the T/C [18] was 95 % of control.
`C=CC(=O)Oc1ccccc1/C=C/C(=O)CCCCCC` was tested, and the T/C [7] was 98 % of control, the T/C [8] was 107 % of control and the T/C [9] was 105 % of control.
`CC(=O)C1(C(C)=O)OC2c3ccccc3C=CN2C=C1C=O` (configuration not stated) was tested, and the T/C [4] was 110 % of control, the T/C [5] was 106 % of control and the T/C [6] was 106 % of control.
